From US20220280543A1, “DDX17 AND NLRC4 TARGETING FOR INFLAMMATORY DISEASES” (University of Virginia Patent Foundation, priority 2019, published 2022)

System: NLRC4
Assay: Alu RNA induced NLRC4 protein oligomerization in BMDM, Tris-glycine native PAGE
Type: cell-based, mouse
Details: Alu RNA 100 pmol, indicated time points (FIG. 4)
Protocol: FIG. 4. Alu RNA (SEQ ID NO: 86) induced NLRC4 protein oligomerization. Mouse BMDM was treated with Alu RNA (SEQ ID NO: 86; 100 pmol) at the indicated time points. NLRC4 oligomers were detected by Tris-glycine native PAGE. Loading control show by Actin. […] The bands of oligomeric NLRC4 protein were indicated by black arrow.
The activated NLRC4 inflammasome undergoes oligomerization by assembling into high-molecular mass multiprotein complexes. We first investigated in situ assembling of NLRC4 and apoptosis speck (ASC) like protein complexes in response to SINE RNA treatment of BMDMs. Immunofluorescence studies show increased NLRC4 and ASC specks in SINE RNA-treated BMDMs compared to mock-treated cells (FIG. 3A). To assess NLRC4 inflammasome assembly, WT and NLRC4 KO BMDM cells were treated with Alu RNA (SEQ ID NO: 86). Disuccinimidyl suberate (DSS) cross-linked lysates were resolved using denaturing SDS-PAGE to detect ASC oligomers and cell lysates were resolved using native polyacrylamide gel electrophoresis (NATIVE-PAGE) to detect NLRC4 oligomerization. […] NLRC4/ASC oligomerization is essential for the cleavage of pro-caspase-1 into its active form p20 and IL-1β release.

Alu RNA: human SINE RNA, SEQ ID NO: 86
formation of NLRC4 oligomers, BMDM: induces the formation of NLRC4 oligomers
